The text below walks through data of patent publication US10421718B2, “EBNA1 inhibitors and their method of use” (priority 2013, dated 2019).

For the assay, the target named is T1, His-EBNA1 (DNA binding domain of EBNA1, amino acids 459-607) (Epstein-Barr virus, UniProt P03211).
T1 construct: made in house; host or cells: E. coli
The assay can be described thus: Inhibition of 5′-biotin-oPL4624 binding to His-EBNA1 using Alpha Screen technology. The settings on record: Alpha Screen Activity (IC50, inhibition of 5′-biotin-oPL4624 binding to His-EBNA1), 15 nM His-EBNA1, 0.2 nM bt-oPL4624, 2 hr room temperature. In outline: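 AlphaScreen signal (680 nm ex, 570 nm em) after a 2-h room-temperature incubation, normalized to no-EBNA1 (100% inhibition) and EBNA1 (0%) values and fit to a one-site curve. Final conditions: 15 nM His-EBNA1 (aa 459-607), 0.2 nM bt-oPL4624, Tris pH 7.2 buffer with 160 mM NaCl, compound 3.2 nM to 100 μM.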

T1 sequence (P03211 459-607): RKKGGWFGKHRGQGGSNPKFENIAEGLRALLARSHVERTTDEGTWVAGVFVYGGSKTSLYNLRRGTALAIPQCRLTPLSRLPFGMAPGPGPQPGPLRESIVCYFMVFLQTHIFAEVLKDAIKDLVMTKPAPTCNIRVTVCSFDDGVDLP

For the compound `O=C(O)c1cccc(C#Cc2ccncc2)c1-n1ccc2ccccc21` [Entry 291, 2-indol-1-yl-3-pyridin-4-ylethynyl-benzoic acid], the IC50 lay within 10 to 100 µM. Under `O=C(O)c1cccc(C#Cc2ccncc2)c1-n1ccnc1` [Entry 292, 2-imidazol-1-yl-3-pyridin-4-ylethynyl-benzoic acid] stands 100 to 1000 µM; under `O=C(O)c1cccc(C#Cc2ccncc2)c1-n1cncn1` [Entry 293, 3-pyridin-4-ylethynyl-2-[1,2,4]triazol-1-yl-benzoic acid], 10 to 100 µM. Under `O=C(O)c1cccc(C#Cc2ccccc2)c1-n1ccnc1` [Entry 294, 2-imidazol-1-yl-3-phenylethynyl-benzoic acid] stands 10 to 100 µM; under `O=C(O)c1cccc(C#Cc2ccccc2)c1-n1cccn1` [Entry 295, 3-phenylethynyl-2-pyrazol-1-yl-benzoic acid], 100 to 1000 µM; under `O=C(O)c1cccc(C#Cc2ccccc2)c1-n1cncn1` [Entry 296, 3-phenylethynyl-2-[1,2,4]triazol-1-yl-benzoic acid], 10 to 100 µM. To `O=C(O)c1cccc(C#Cc2ccccc2)c1-n1cnc2ccccc21` [Entry 297, 2-benzoimidazol-1-yl-3-phenylethynyl-benzoic acid] belongs 10 to 100 µM; to `O=C(O)c1cccc(C#Cc2ccccc2)c1-n1ncc2ccccc21` [Entry 298, 2-indazol-1-yl-3-phenylethynyl-benzoic acid], 10 to 100 µM. With `O=C(O)c1cccc(C#Cc2ccccc2)c1-n1ccc2ccccc21` [Entry 299, 2-indol-1-yl-3-phenylethynyl-benzoic acid], the half-maximal inhibitory concentration (IC50) lay in the range of 1 to 10 µM. Consider `O=C(O)c1cccc(C#Cc2ccncc2)c1-n1cnc2ccccc21` [Entry 300, 2-benzoimidazol-1-yl-3-pyridin-4-ylethynyl-benzoic acid], for which the IC50 was in the range of 10 to 100 µM.
